Measurements from ChEMBL document CHEMBL1201862, “PubChem BioAssay data set” (2004).
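Cultured in 96-well plates, cells were exposed to test compound for 48 hours across five concentrations. At the GI50, growth is halved.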 Activity calls are given as the source filed them. Cut-off read from the data, not from the text of the source: active = GI50 up to about 1.1 µM and inactive = higher.

Legend:
Assay in all cases: NCI tumour cell line growth inhibition, 48 h
A498 = test system: A498
HCT-116 = test system: HCT-116
KM12 = test system: KM12
KM-20L2 = test system: KM-20L2
MOLT-4 = test system: MOLT-4
DMS-273 = test system: DMS-273
COLO 205 = test system: COLO 205
SW-620 = test system: SW-620
UACC-257 = test system: UACC-257
OVCAR-3 = test system: OVCAR-3
SF-268 = test system: SF-268
OVCAR-8 = test system: OVCAR-8
SNB-19 = test system: SNB-19
UO-31 = test system: UO-31
786-0 = test system: 786-0
NCI-H460 = test system: NCI-H460
SK-MEL-28 = test system: SK-MEL-28
IGROV-1 = test system: IGROV-1
UACC-62 = test system: UACC-62
ACHN = test system: ACHN
HOP-62 = test system: HOP-62
A549 = test system: A549
SK-MEL-5 = test system: SK-MEL-5
HCC 2998 = test system: HCC 2998
SN12C = test system: SN12C
RXF 393 = test system: RXF 393
NCI-H226 = test system: NCI-H226
SK-MEL-2 = test system: SK-MEL-2
U-251 = test system: U-251
SK-OV-3 = test system: SK-OV-3
TK-10 = test system: TK-10
CCRF-CEM = test system: CCRF-CEM
SNB-75 = test system: SNB-75
K562 = test system: K562
DMS-114 = test system: DMS-114
HOP-18 = test system: HOP-18
RPMI-8226 = test system: RPMI-8226
SR = test system: SR
M14 = test system: M14
SNB-78 = test system: SNB-78
DLD-1 = test system: DLD-1
NCI-H522 = test system: NCI-H522
CAKI-1 = test system: CAKI-1
M19-MEL = test system: M19-MEL
OVCAR-4 = test system: OVCAR-4
HCT-15 = test system: HCT-15
SF-539 = test system: SF-539
HL-60 = test system: HL-60
Malme-3M = test system: Malme-3M
LXFL 529 = test system: LXFL 529
HT-29 = test system: HT-29
HOP-92 = test system: HOP-92
XF498 = test system: XF498
LOX IMVI = test system: LOX IMVI
NCI-H23 = test system: NCI-H23
OVCAR-5 = test system: OVCAR-5

Measured: GI50

CCCNC(=O)C(C)(Cl)C(=O)c1ccccc1O (stereo unspecified)
inactive: A498 > 100 µM | HCT-116 > 100 µM | KM12 > 100 µM | KM-20L2 > 100 µM | MOLT-4 > 100 µM | DMS-273 > 100 µM | COLO 205 > 100 µM | SW-620 > 100 µM | UACC-257 > 100 µM | OVCAR-3 > 100 µM | SF-268 > 100 µM | OVCAR-8 > 100 µM | SNB-19 > 100 µM | UO-31 > 100 µM | 786-0 > 100 µM | NCI-H460 > 100 µM | SK-MEL-28 > 100 µM | IGROV-1 > 100 µM | UACC-62 > 100 µM | ACHN > 100 µM | HOP-62 > 100 µM | A549 > 100 µM | SK-MEL-5 > 100 µM | HCC 2998 > 100 µM | SN12C > 100 µM | RXF 393 > 100 µM | NCI-H226 > 100 µM | SK-MEL-2 > 100 µM | U-251 > 100 µM | SK-OV-3 > 100 µM | TK-10 > 100 µM | CCRF-CEM > 100 µM | SNB-75 > 100 µM | K562 > 100 µM | DMS-114 > 100 µM | HOP-18 > 100 µM | RPMI-8226 > 100 µM | SR > 100 µM | M14 > 100 µM | SNB-78 > 100 µM | DLD-1 > 100 µM | NCI-H522 > 100 µM | CAKI-1 > 100 µM | M19-MEL > 100 µM | OVCAR-4 > 100 µM | SF-539 > 100 µM | HL-60 > 100 µM | Malme-3M > 100 µM | LXFL 529 > 100 µM
> 100 µM: HCT-15

CC(=O)O[C@@H]1C2C(=O)OC(=O)C2C2CCC[C@]23O[C@H]13 (stereo partly specified)
inactive: A498 > 100 µM | HCT-116 > 100 µM | KM12 > 100 µM | KM-20L2 > 100 µM | MOLT-4 > 100 µM | DMS-273 > 100 µM | COLO 205 > 100 µM | SW-620 > 100 µM | UACC-257 > 100 µM | OVCAR-3 > 100 µM | SF-268 > 100 µM | OVCAR-8 > 100 µM | SNB-19 > 100 µM | UO-31 > 100 µM | 786-0 > 100 µM | NCI-H460 > 100 µM | SK-MEL-28 > 100 µM | IGROV-1 > 100 µM | UACC-62 > 100 µM | ACHN > 100 µM | HOP-62 > 100 µM | A549 > 100 µM | SK-MEL-5 > 100 µM | HCC 2998 > 100 µM | SN12C > 100 µM | RXF 393 > 100 µM | NCI-H226 > 100 µM | SK-MEL-2 > 100 µM | U-251 > 100 µM | SK-OV-3 > 100 µM | TK-10 > 100 µM | CCRF-CEM > 100 µM | SNB-75 > 100 µM | K562 > 100 µM | DMS-114 > 100 µM | HOP-18 > 100 µM | RPMI-8226 > 100 µM | SR > 100 µM | M14 > 100 µM | SNB-78 > 100 µM | DLD-1 > 100 µM | NCI-H522 > 100 µM | CAKI-1 > 100 µM | M19-MEL > 100 µM | OVCAR-4 > 100 µM | SF-539 > 100 µM | HL-60 > 100 µM | Malme-3M > 100 µM | LXFL 529 > 100 µM
> 100 µM: HCT-15

COc1cc(C2c3cc4c(cc3[C@@H](NCCN(C)C)C3COC(=O)[C@H]23)OCO4)cc(OC)c1O (stereo partly specified)
0.147 µM: HCT-15
active: KM12 0.475 µM | SW-620 0.153 µM | OVCAR-3 1.05 µM | SNB-19 0.338 µM | UO-31 0.149 µM | HT-29 0.536 µM | SK-MEL-28 0.284 µM | HOP-92 0.0232 µM | SK-MEL-5 0.0869 µM | U-251 0.0359 µM | TK-10 0.853 µM | K562 0.253 µM | RPMI-8226 0.455 µM | M14 0.229 µM | DLD-1 1.06 µM | M19-MEL 0.575 µM | SF-539 0.0375 µM | Malme-3M 0.21 µM | XF498 0.12 µM
inactive: OVCAR-4 1.98 µM | LXFL 529 1.43 µM

COc1cc(CNc2ccc(C)cc2)cc(OC)c1OC
inactive: UACC-257 7.05 µM | XF498 1.29 µM
active: LOX IMVI 0.46 µM | KM-20L2 0.159 µM | MOLT-4 0.175 µM | DMS-273 0.0925 µM | COLO 205 0.151 µM | SW-620 0.11 µM | OVCAR-3 0.179 µM | SF-268 0.615 µM | OVCAR-8 0.65 µM | SNB-19 0.356 µM | UO-31 0.843 µM | 786-0 0.376 µM | NCI-H460 0.471 µM | IGROV-1 0.577 µM | NCI-H23 0.277 µM | HOP-62 0.44 µM | A549 0.423 µM | SK-MEL-5 0.923 µM | RXF 393 0.301 µM | SK-MEL-2 0.417 µM | U-251 0.252 µM | SK-OV-3 0.251 µM | CCRF-CEM 0.259 µM | SNB-75 0.21 µM | K562 0.148 µM | OVCAR-5 1.02 µM | DMS-114 0.225 µM | RPMI-8226 0.5 µM | DLD-1 0.375 µM | M19-MEL 0.252 µM | HL-60 0.0948 µM | LXFL 529 0.46 µM
